Results on 31 compounds are retold here after patent US6413975B1, “Purine derivatives having phosphodiesterase iv inhibition activity” (Euro-Celtique, S.A., priority 1999, dated 2002).

As a reminder, the melting point is the temperature, or range, at which the solid turns liquid. For orientation: % Inhibition means the share of the control response that was lost under treatment.

One data set concerns Type IV PDE. Put plainly: PDE IV inhibition: hydrolysis of [3H]-cyclic AMP by isolated Type IV PDE. It counts as biochemical, bovine. How it is done: The Type IV PDE is isolated from bovine tracheal smooth muscle using a procedure similar to that previously described by Silver, P. J., Hamel, L. T., Perrone, M. H. Bentley, R. G. Bushover, C. R., Evans, D. B.: Eur. J. Pharmacol. 150:85,1988.(1). Briefly, smooth muscle from bovine trachea is minced and homogenized using a polytron in 10 volumes of an extraction buffer containinhg 10 mM Tris-acetate (pH 7.5), 2 mM magnesium chloride, 1 mM dithiothreitol and 2,000 units/ml of aprotinin. This and all subsequent procedures are performed at 0-4° C. The homogenate is sonicated and then centrifiged at 48,000×g for 30 minutes. The resulting supernatant is applied to a DEAE Trisacryl M column previously equilibrated with sodium acetate and dithiothreitol. After applications of the sample, the column is washed with sodium acetate/dithiothreitol, after which the different forms of PDE are eluted from the column using a linear Tris-HCl/NaCl gradient. Fractions containing Type IV PDE are collected, dialyzed and concentrated to 14% of the original volume. The concentrated fractions are diluted to 50% with ethylene glycol and stored at -20° C.
Enzyme activity is assessed by measuring the hydrolysis of [^3H]-cyclic AMP, as described by Thompson, W. J., Teraski, W. L., Epstein, P. N., Strada, S. J.: Adv. Cyclic Nucleotide Res. 10:69, 1979. The cyclic AMP concentration used in this assay is 0.2 μM, which approximates the Km value. Protein concentration is adjusted to ensure that no more than 15% of the available substrate is hydrolyzed during the incubation period.
All test compounds are dissolved in dimethyl sulfoxide (final concentration of 2.5%). This concentration of dimethyl sulfoxide inhibits enzyme activity by approximately 10%.

In data set [1] the test system is ovalbumin-sensitized guinea pigs (eosinophils in BAL). The data set is described as follows: Ovalbumin sensitization and challenge in guinea pigs, differential cell counts in bronchoalveolar lavage. The following applies: 5 mg/kg ip one hour prior to ovalbumin challenge; for % Eosinophils in BAL x ± se: BAL 24 hours after aerosol exposure; for % Inhibition: eosinophils in BAL versus vehicle. It counts as in vivo, guinea pig. The protocol: (i) The effect of test compounds in a model of bronchial hyperresponsiveness (BHR) and cellular infiltration in the guinea pig induced by ovalbumin (see, for example Morley et al, Agents and Actions, Supplement, 1988, 23, 187) were studied.
(ii) Sensitization and Challenge procedure: Male Dunkin Hartley guine pigs (Charles River) (200-250 g) were injected i.p. with ovalbumin (OVA) (0.5 ml/animal; 20 μg OVA in AlOH)3 (moist gel)); this preparation produced an injectable stable suspension containing excess Al(OH)3. Sham animals were injected with 0.5 ml Al(OH)3 alone. After a period of 18-21 days animals were exposed to an aerosol of OVA (100 μg/ml) for 1 hour in an exposure chamber.
(iii) Bronchoalveloar lavage: Animals were anaesthetized, 24 hours after aerosol exposure, with urethane (25%, w/v, 7 ml/kg, i.p.) and the trachea cannulated. Bronchoalveo-lar lavage (BAL) was performed by instilling 5 ml sterile saline into the lungs via the tracheal cannula and the fluid was immediately removed. The fluid was reinjected and the procedure repeated 5 times in total. […] Total cell counts were perfomed on the resultant BAL fluid using an improved Neubauer haemocytometer. Cytospin preparations were prepared using a Shandon Cytospin 2 centrifuge. Two drops of BAL fluid were added to each cytospin cup and the samples were centrifuged for 1 min at 1300 r.p.m. Slides were fixed in acetone and stained with haemotoxylin and carbol chromotrope according to the method described by Lendrum (Lendrum 1944), differential cell counts were performed on each slide by counting 200 cells at random, the cell types were classified as neutrophils, eosinophils and mononuclear cells according to standard morphological criteria. Cells were counted blind. The results are expressed as the number of neutrophils, eosinophils and mononuclear cells per ml of BAL fluid. The remaining BAL fluid was centrifuged (10 min., 1000 g) and the resultant cells and cell free supernatants were aliquotted and frozen for later assays. Compounds were solu-bilized in either DMSO or saline administered intraperitoreally at a dose of 5 mg/kg one hour prior to ovalbumin challenge.

[2] abbreviates: dithioxanthines, Table 5, read-out: IC50 PDE IV.
Setting [3] is: adenines, Table 4, cyclic AMP 0.2 μM, read-out: calc PDE IV IC50.
Setting [4] is: adenines, Table 7, read-out: calc PDE IV IC50.
[5] abbreviates: thioisoguanines, Table 2, cyclic AMP 0.2 μM, read-out: Calc IC50 PDE IV.

Where a name gives a salt, the structure may show the parent alone. Read-outs that look alike come from different tables or passages of the source.

In the case of `COc1ccc(Cn2cnc(N)c3nc(C(C)(C)OCc4ccc(F)cc4)nc2-3)cc1OC` (as salt: hydrochloride) [6-Amino-3-(3,4-dimethoxybenzyl)-8-(1-(4-fluorobenzyloxy-1-methyl-ethyl)-3H-purine Hydrochloride], the melting point fell in the range of 172 to 175 °C. The compound `CCCCCCn1cnc(NCC)c2ncnc1-2` (as salt: hydrochloride) [6-Ethylamino-3-hexyl-3H-purine] returned a melting point of 190 to 195 °C. For the compound `CCNc1ncn(Cc2ccc(OC)c(OC3CCCC3)c2)c2nc(C(C)C)nc1-2.Cl` [3-(3-Cyclopentyloxy-4-methoxybenzyl)-6-ethylamino-8-isopropyl-3H-purine Hydrochloride], in the data set on Type IV PDE (read-out: PDE IV I50), the IC50 was 0.32 µM. In data set [1], the “% Eosinophils in BAL x ± se” value stood at 12 ± 2% and the “% Inhibition” value amounted to 64%. Regarding `COc1ccc(Cn2c(=S)[nH]c(=S)c3[nH]c(C(C)C)nc32)cc1OC1CCCC1` [3-(3-cyclopentyloxy-4-methoxybenzyl)-3,7-dihydro-8-isopropyl-2,6-dithio-1H-purine-2,6-dione], the IC50 in the data set on Type IV PDE (setting [2]) amounted to 0.6 µM. The IC50 in the data set on Type IV PDE (read-out: PDE IV I50) worked out at 0.8 µM. In data set [1], the “% Eosinophils in BAL x ± se” value is on record as 17 ± 3% and the “% Inhibition” value is 47%. `CCNc1ncn(Cc2ccc(Cl)cc2)c2ncnc1-2.Cl` [3-(4-chlorobenzyl)-6-ethylamino-3H-purine hydrochloride] showed a melting point of 251 to 254 °C. The IC50 with Type IV PDE (setting [3]) was 37.8 µM. As to `CCNc1ncn(Cc2ccc(Cl)cc2)c2nc(C(C)C)nc1-2` [3-(4-chlorobenzyl)-6-ethylamino-8-isopropyl-3H-purine], the melting point was in the range of 215 to 217 °C. Moreover, the IC50 with Type IV PDE (read-out: PDE IV I50) came to 1.13 µM.

`COc1ccc(Cn2cnc(N)c3nc(C(C)(C)OCc4ccc(F)cc4)nc2-3)cc1OC1CCCC1.Cl` [6-Amino-3-(3-cyclopentyloxy-4-methoxy-benzyl)-8-(1-(4-fluorobenzyloxy)-1-methyl-ethyl)-3H-purine hydrochloride] returned a melting point of 165 to 174 °C. The IC50 in the data set on Type IV PDE (setting [4]) is 0.034 µM. In the same order, the values of `COc1ccc(Cn2cnc(N)c3nc(C(C)(C)OCc4ccccc4)nc2-3)cc1OC1CCCC1.Cl` [6-Amino-8-(1-benzyloxy-1-methyl-ethyl)-3-(3-cyclopentyloxy-4-methoxy-benzyl)-3H-purine Hydrochloride] are 201 to 203 °C and 0.005 µM. Consider `CCNc1nc(Cc2ccc(OC)c(OC)c2)[nH]c2nc(C(C)C)nc1-2` [6-ethylamino-2-(3,4-dimethoxybenzyl)-8-isopropyl-3H-purine], for which the IC50 in the data set on Type IV PDE (setting [4]) is 0.31 µM. The same measure, in the same setting: as for `CCNc1ncn(Cc2ccc3c(c2)OCO3)c2nc(C(C)C)nc1-2` [6-ethylamino-3-(3-,4-methylenedioxybenzyl)-8-isopropyl-3H-purine], the figure is 0.44 µM; as for `CCNc1ncn(Cc2ccc(OC)c(O)c2)c2nc(C(C)C)nc1-2` [6-ethylamino-3-(3-hydroxy-4-methoxybenzyl)-8-isopropyl-3H-purine], 2.73 µM; as for `CCNc1ncn(Cc2ccc(F)cc2)c2nc(C(C)C)nc1-2` [6-ethylamino-3-(4-fluorobenzyl)-8-isopropyl-3H-purine], 1.85 µM.

Take `CCNc1ncn(Cc2ccc(OC)c(OC3CCCC3)c2)c2nc(C(C)C)nc1-2` [6-ethylamino-3-[(3-cyclopentyloxy-4-methoxy)benzyl]-8-isopropyl-3H-purine]: the IC50 in the data set on Type IV PDE (setting [4]) was 0.66 µM. For the compound `CCNc1ncn(Cc2ccc(OC)c(O)c2)c2nc(C(C)(C)O)nc1-2` [6-ethylamino-3-[(3-hydroxy-4-methoxy)benzyl]-8-[(1-hydroxy-1-methyl)ethyl]- -3H-purine], the IC50 in the data set with Type IV PDE (setting [4]) is 6.5 µM. On the same count and under the same terms, with `CCNc1ncn(Cc2ccc(OC)cc2)c2nc(C(C)C)nc1-2` [6-ethylamino-8-isopropyl-3-(4-methoxybenzyl)-3H-purine] the figure was 1.2 µM; with `CCNc1ncn(Cc2ccc(OC)c(OCCCCO)c2)c2nc(C(C)C)nc1-2` [6-ethylamino-8-isopropyl-3-[(4-methoxy-3-(4-hydroxybutoxy))benzyl]-3H-purine], 1.75 µM.

In turn, `CCNc1ncn(Cc2ccc(OC)c(OC3CCCC3)c2)c2nc(C(C)(C)OCc3ccccc3)nc1-2.Cl` [8-(1-Benzyloxy-1-methyl-ethyl)-3-(3-cyclopentyloxy-4-methoxy-benzyl)-6-ethylamino-3H-purine Hydrochloride] had a melting point of 148 to 150 °C. Further, the IC50 with Type IV PDE (setting [4]) is 0.85 µM. For `CCNc1ncn(CC)c2nc(Cc3ccc(OC)c(OC4CCCC4)c3)nc1-2` [8-(3-Cyclopentyloxy-4-methoxybenzyl)-3-ethyl-6-ethylamino-3H-purine Hydrochloride], in the data set with Type IV PDE (setting [3]), the IC50 is 4.52 µM.

As to `CCn1c(=S)c2[nH]c(C3CC3)nc2n(CC)c1=S` [8-cyclopropyl-3,7-dihydro-1,3-diethyl-2,6-dithio-1H-purin-2,6-dione], the IC50 with Type IV PDE (read-out: PDE IV I50) amounted to 0.42 µM. For the compound `CC(C)CCn1c(=S)[nH]c(=S)c2[nH]c(C3CC3)nc21` [8-cyclopropyl-3,7-dihydro-3-(3-methylbutyl)-2,6-dithio-1H-purine-2,6-dione], in the data set with Type IV PDE (setting [2]), the IC50 came out at 6.31 µM. On the same count and under the same terms, as for `CCn1c(=S)[nH]c(=S)c2[nH]c(C3CC3)nc21` [8-cyclopropyl-3,7-dihydro-3-ethyl-2,6-dithio-1H-purine-2,6-dione], the figure is 6.18 µM; as for `CCCn1c(=S)[nH]c(=S)c2[nH]c(C3CC3)nc21` [8-cyclopropyl-3,7-dihydro-3-propyl-2,6-dithio-1H-purine-2,6-dione], 64.5 µM. For the compound `CCCn1c(=S)nc(NCc2ccncc2)c2[nH]c(C3CC3)nc21` [8-cyclopropyl-3,7-dihydro-3-propyl-6-(4-pyridyl-methylamino)-2-thio-2H-purin-2-one], the IC50 in the data set on Type IV PDE (read-out: PDE IV I50) was 0.41 µM. As for `CCCn1c(=S)nc(NCCO)c2[nH]c(C3CC3)nc21` [8-cyclopropyl-3,7-dihydro-6-(2-hydroxyethylamino)-3-propyl-2-thio-2H-purin-2-one], the IC50 with Type IV PDE (read-out: PDE IV I50) is 4.48 µM; in the data set with Type IV PDE (setting [5]), 53.8 µM. For the compound `S=c1[nH]c(=S)n(CC2CC2)c2nc(C3CC3)[nH]c12` [8-cyclopropyl-3-cyclopropylmethyl-3,7-dihydro-2,6-dithio-1H-purine-2,6-dione], the IC50 with Type IV PDE (setting [2]) was determined as 2.27 µM. Consider `CCNc1ncn(CC2CC2)c2nc(C3CC3)nc1-2` [8-cyclopropyl-3-cyclopropylmethyl-6-ethylamino-3H-purine hydrochloride], for which the IC50 in the data set on Type IV PDE (setting [3]) was 4.11 µM.

As to `CCNc1nc(=S)n(CC)c2nc(C3CC3)[nH]c12` [8-cyclopropyl-3-ethyl-6-ethylamino-3,7-dihydro-2-thio-2H-purin-2-one], the IC50 in the data set with Type IV PDE (setting [5]) was 13.7 µM. Still for that read-out and setting: as for `CCCNc1nc(=S)n(CC)c2nc(C3CC3)[nH]c12` [8-cyclopropyl-3-ethyl-6-propylamino-2-thio-2H-purin-2-one], the figure is 8.48 µM. With `CCCNc1ncn(CC)c2nc(C3CC3)nc1-2` [8-cyclopropyl-3-ethyl-6-propylamino-3H-purine hydrochloride], the IC50 in the data set with Type IV PDE (setting [3]) was 15.7 µM. Still for that read-out and setting: with `CCCn1cnc(NC2CC2)c2nc(C3CC3)nc1-2` [8-cyclopropyl-6-cyclopropylamino-3-propyl-3H-purine hydrochloride] the figure was 7.9 µM; with `CCCn1cnc(NCC)c2nc(C3CC3)nc1-2` [8-cyclopropyl-6-ethylamino-3-propyl-3H-purine hydrochloride], 6.31 µM.
